Converted amounts (≈) assume the structure as drawn. Like-named read-outs stand apart in the source and are kept apart here. Bridge positions count the residues as written; N and C are the ends. Peptide text beside a SMILES is read from it.

The nature of data set [1]: physchem. It is filed as physicochemical. On the procedure:
In the case of the polypeptide of amino acid sequence: […] Solubility is particularly important for IT injections because there is a limitation of the injection volume, a limit which is much greater than that for peripheral injections, and a limitation in the solvents and solutions that may be used, for example. The use of a 5% glucose solution improves the solubility of the polypeptide of amino acid sequence: […] [SEQ ID NO: 58] by bringing it to around 10 mg/ml, wherein this solution remains an isotonic solution that is compatible with an IT injection.

The target in a further data set is neprylysine (Homo sapiens, UniProt P08473). Description: Enzymatic digestion with neprylysine analysed by LC/MS/MS. The data set is classed as in vitro ADME. To be noted: for Percentage of digestion / metabolised at 0.5 h: neprylysine; for Area under the curve in the presence of enzyme: neprylysine diluted by a tenth in water; for Area under the control curve (no enzyme): LC/MS/MS; for metabolised at 0.5 h: read-out: Percentage of digestion. On the procedure:
A so-called “control” sample without enzyme and effected in parallel was performed to establish an analytical reference for each parameter explored. The polypeptides are diluted in deoxygenated water to maintain the stability of both forms over time. Digestions were analyzed by the LC/MS/MS mass spectrometry technique. The percentage of digestion corresponds, for a given polypeptide, to the percentage of the area under the curve in the presence of enzyme relative to the area under the control curve for the same polypeptide.

A short description of data set [2]: physchem. As to conditions: aqueous 0.9% NaCl solution.
Protocol: Two weighings of 0.5 mg are made in a 1.5 ml micro tube for the polypeptide
The tubes are then vortexed for a few seconds and one drop of each polypeptide solution so obtained is placed on a glass slide for observation under an optical microscope.

Sequence of neprylysine (P08473 whole entry): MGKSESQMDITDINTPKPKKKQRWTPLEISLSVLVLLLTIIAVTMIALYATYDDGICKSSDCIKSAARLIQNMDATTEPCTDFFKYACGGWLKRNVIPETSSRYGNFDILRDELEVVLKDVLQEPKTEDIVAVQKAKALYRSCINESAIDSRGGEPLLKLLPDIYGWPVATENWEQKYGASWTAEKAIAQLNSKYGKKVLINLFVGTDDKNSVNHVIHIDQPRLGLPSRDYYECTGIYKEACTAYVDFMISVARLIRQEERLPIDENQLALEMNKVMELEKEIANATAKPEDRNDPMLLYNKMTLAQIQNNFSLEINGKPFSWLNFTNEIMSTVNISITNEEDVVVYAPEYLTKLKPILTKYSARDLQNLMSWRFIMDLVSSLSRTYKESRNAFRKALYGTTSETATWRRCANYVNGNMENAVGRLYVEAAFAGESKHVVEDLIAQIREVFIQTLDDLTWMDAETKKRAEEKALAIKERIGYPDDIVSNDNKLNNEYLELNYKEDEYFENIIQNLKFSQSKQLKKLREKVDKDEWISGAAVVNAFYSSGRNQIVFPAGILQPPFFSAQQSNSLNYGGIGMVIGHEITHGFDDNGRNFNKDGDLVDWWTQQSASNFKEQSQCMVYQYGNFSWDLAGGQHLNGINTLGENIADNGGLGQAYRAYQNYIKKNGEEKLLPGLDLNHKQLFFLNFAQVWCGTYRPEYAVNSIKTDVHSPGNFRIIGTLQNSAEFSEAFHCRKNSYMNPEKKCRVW

Consider `N=C(N)NCCC[C@H](NC(=O)[C@H](CO)NC(=O)[C@H](CS)NC(=O)[C@H](CO)NC(=O)[C@H](CO)NC(=O)[C@H](Cc1c[nH]c2ccccc12)NC(=O)CNC(=O)[C@H](CO)NC(=O)[C@@H](N)Cc1c[nH]c2ccccc12)C(=O)N[C@@H](CO)C(=O)N[C@@H](CS)C(=O)NCC(=O)O` [SEQ ID NO: 58, W-S-G-W-S-S-C-S-R-S-C-G] (H-WSGWSSCSRSCG-OH; N-terminus and C-terminus assumed), for which the solubility – broadly, the dissolved amount per volume that the medium holds – in the data set “physchem [1]” (solubility in 5% glucose solution) is around 10000 µg/mL (≈ 7680 µM); in “physchem [1]” (solubility in the physiological liquid), 1000 to 2000 µg/mL (≈ 768 to 1540 µM); in “physchem [2]”, around 2000 µg/mL (≈ 1540 µM). Further, the Percentage of digestion result at neprylysine (T = 0 min) is listed as “none”; at neprylysine (T = 30 min), 28%. Moreover, the “Area under the curve in the presence of enzyme” value (shortened to “Area under the curve”) at neprylysine (T = 0 min) was found to be 797200; on neprylysine (T = 30 min), 576500. The “Area under the control curve (no enzyme)” value at neprylysine (T = 0 min) came out at 788400; at neprylysine (T = 30 min), 802800. In addition, the metabolised at 0.5 h at neprylysine (isolated neprylysine enzyme, T = 30 min) turned out to be 28%.

Turning to `N=C(N)NCCC[C@@H]1NC(=O)[C@H](CO)NC(=O)[C@@H](NC(=O)[C@H](CO)NC(=O)[C@H](CO)NC(=O)[C@H](Cc2c[nH]c3ccccc23)NC(=O)CNC(=O)[C@H](CO)NC(=O)[C@@H](N)Cc2c[nH]c3ccccc23)CSSC[C@@H](C(=O)NCC(=O)O)NC(=O)[C@H](CO)NC1=O` [SEQ ID NO: 2, W-S-G-W-S-S-C-S-R-S-C-G] (H-WSGWSSCSRSCG-OH; disulfide 7-11), at neprylysine (T = 0 min), the Percentage of digestion result was “none”, the “Area under the curve” value was 3220000 and the “Area under the control curve (no enzyme)” value is given as 3008000. In addition, at neprylysine (T = 30 min), the Percentage of digestion was found to be 8.5%, the “Area under the curve” value is 3401000 and the “Area under the control curve (no enzyme)” value is listed as 3722000. Moreover, the metabolised at 0.5 h at neprylysine (isolated enzyme neprilysin, T = 30 min) was found to be 8.5%.

The values above are taken from US10501497B2, “Cyclic polypeptides, method for obtaining them and the therapeutic use thereof” (AXOLTIS PHARMA, priority 2015, dated 2019).
